Experiment [1] addresses T1, SIK2 (Homo sapiens, UniProt Q9H0K1). The experiment in a line: SIK2 Enzymatic Assay Version 1 (ADP Glo). The conditions noted are these: enzyme 0.6 nM, 160 μM ATP and 140 μM HDAC5tide (each 2× final concentration); 30 minutes pre-incubation, 4 hours; ADPGlo luminescence; read-out: SIK2 ADP Glo IC50 (μM) (Test Example 1). It counts as biochemical. How it is done:
All steps were performed at room temperature. Compounds were pre-plated onto an assay plate using an Echo acoustic dispenser (Labcyte, E550 or E555) at 20 nL per well. Enzyme prepared in Assay Buffer at 0.6 nM (2× final concentration) was added at 2 μL per well using the Multidrop Combi (Thermo Fisher—used for all additions in this assay) to the assay plate, spun for 1 min at 800-850 rpm (Allegra 6KR Beckman Coulter centrifuge), and incubated with compound for 30 minutes.
One column of wells was dedicated to a no-peptide negative control (containing only ATP). ADPGlo Reagent (prepared and aliquoted as per manufacturer instructions) was then added at 2 μL per well, spun and incubated for 40 min. ADPGlo Detection (prepared and aliquoted as per manufacturer instructions) was added at 2 μL per well to the assay plate, which was spun and incubated for at least 30 min. The plate was then read on the Pherastar (BMG Labtech) using a luminescence read. Gain was set by the 0.1 mM concentration of ADP wells in the ADP/ATP standard curve plate generated as per manufacturer instructions.

Experiment [2] addresses T1, SIK2. The experiment in a line: SIK2 Enzymatic Assay High Version 2 (High ATP). It counts as biochemical. Put shortly: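 At room temperature, enzyme (6 nM, 2× final) was preincubated with compound for 30 min, then 6 mM ATP and 400 μM HDAC5tide (both 2× final) were added for 2 h. ADP formed was measured by ADP-Glo Max (2 h reagent, 1 h detection) using luminescence.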

T1 sequence (Q9H0K1 whole entry, species assumed): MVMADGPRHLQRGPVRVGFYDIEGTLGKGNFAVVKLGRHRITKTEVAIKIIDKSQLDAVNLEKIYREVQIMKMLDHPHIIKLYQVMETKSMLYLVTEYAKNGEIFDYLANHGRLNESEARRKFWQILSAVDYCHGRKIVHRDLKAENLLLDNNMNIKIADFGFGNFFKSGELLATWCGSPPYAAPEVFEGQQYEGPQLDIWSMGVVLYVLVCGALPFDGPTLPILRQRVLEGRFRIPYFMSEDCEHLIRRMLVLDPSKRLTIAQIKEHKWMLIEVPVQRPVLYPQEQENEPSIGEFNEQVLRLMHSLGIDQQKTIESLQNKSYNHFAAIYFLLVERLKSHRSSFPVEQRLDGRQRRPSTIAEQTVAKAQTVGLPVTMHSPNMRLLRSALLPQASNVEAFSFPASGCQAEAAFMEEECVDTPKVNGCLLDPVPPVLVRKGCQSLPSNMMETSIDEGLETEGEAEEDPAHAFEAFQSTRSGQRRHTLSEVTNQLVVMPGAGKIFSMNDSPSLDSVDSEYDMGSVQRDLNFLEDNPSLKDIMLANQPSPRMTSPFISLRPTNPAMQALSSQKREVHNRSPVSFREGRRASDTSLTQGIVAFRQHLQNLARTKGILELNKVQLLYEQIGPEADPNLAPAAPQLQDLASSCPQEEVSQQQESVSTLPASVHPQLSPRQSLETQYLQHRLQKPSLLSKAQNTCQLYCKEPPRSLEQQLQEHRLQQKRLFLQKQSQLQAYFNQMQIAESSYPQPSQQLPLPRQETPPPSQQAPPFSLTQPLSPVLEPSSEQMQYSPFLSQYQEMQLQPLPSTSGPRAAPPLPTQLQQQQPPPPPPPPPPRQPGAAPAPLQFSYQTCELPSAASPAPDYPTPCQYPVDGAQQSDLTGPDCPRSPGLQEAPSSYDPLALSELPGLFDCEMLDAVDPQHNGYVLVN

For orientation: IC50 means the point on the concentration scale where inhibition reaches its midpoint. On to `N#Cc1cc(-c2ccn3nc(NC(=O)C4CC4)cc3c2)c(OCC2CNC(=O)C2)cn1` (racemic) [Example 33, rac-N-(5-(2-cyano-5-((5-oxopyrrolidin-3-yl)methoxy)pyridin-4-yl)pyrazolo[1,5-a]pyridin-2-yl)cyclopropanecarboxamide], for which the results for the IC50 on SIK2 [1] and against SIK2 [2] were 0.00416 µM and 93.1 nM, respectively.

As to `N#Cc1cc(-c2ccn3nc(NC(=O)C4CC4)cc3c2)c(OCC2CCC(O)(C(F)(F)F)CC2)cn1` (racemic) [Example 178, rac-N-[5-[2-cyano-5-[[4-hydroxy-4-(trifluoromethyl)cyclohexyl]methoxy]-4-pyridyl]pyrazolo[1,5-a]pyridin-2-yl]cyclopropanecarboxamide], the IC50 at SIK2 [1] is 0.000605 µM; on SIK2 [2], 12.9 nM.

For `CN1CC[C@H](Oc2cnc(C#N)cc2-c2ccn3nc(NC(=O)C4CC4)cc3c2)C[C@@H]1C(F)(F)F` (relative stereo) [Example 30, N-(5-(2-cyano-5-(((2*R,4*S)-1-methyl-2-(trifluoromethyl)piperidin-4-yl)oxy)pyridin-4-yl)pyrazolo[1,5-a]pyridin-2-yl)cyclopropanecarboxamide], the results for the IC50 at SIK2 [1] and at SIK2 [2] were 0.00044 µM and 4.5 nM, respectively.

With `N#Cc1cc(-c2ccn3nc(NC(=O)C4CC4)cc3c2)c(O[C@@H]2CCN[C@H](C(F)(F)F)C2)cn1` (single isomer, unassigned) [Example 8, N-(5-(2-cyano-5-(((2*S,4*R)-2-(trifluoromethyl)piperidin-4-yl)oxy)pyridin-4-yl)pyrazolo[1,5-a]pyridin-2-yl)cyclopropanecarboxamide], the IC50 came out at 0.000373 µM at SIK2 [1] and 7.51 nM against SIK2 [2].

Consider `N#Cc1cc(-c2ccn3nc(NC(=O)C4CC4)cc3c2)c(O[C@@H]2C[C@@H]3C[C@H]2CN3)cn1` (single isomer, unassigned) [Example 17, N-[5-[5-[[(1*S,4*S,5*R)-2-azabicyclo[2.2.1]heptan-5-yl]oxy]-2-cyano-4-pyridyl]pyrazolo[1,5-a]pyridin-2-yl]cyclopropanecarboxamide], for which the 50% inhibitory concentration (IC50) is 0.000402 µM on SIK2 [1] and 4.17 nM against SIK2 [2].

As to `CN1CC[C@@H](Oc2cnc(C#N)cc2-c2ccn3nc(NC(=O)C4CC4)cc3c2)C[C@H]1C(F)(F)F` (single isomer, unassigned) [Example 29, N-(5-(2-cyano-5-(((2*S,4*R)-1-methyl-2-(trifluoromethyl)piperidin-4-yl)oxy)pyridin-4-yl)pyrazolo[1,5-a]pyridin-2-yl)cyclopropanecarboxamide], the 50% inhibitory concentration (IC50) was 0.00575 µM at SIK2 [1] and 145 nM against SIK2 [2].

As for `N#Cc1cc(-c2ccn3nc(NC(=O)C4CC4)cc3c2)c(NC2CCCC2)cn1` [Example 78, N-[5-[2-cyano-5-(cyclopentylamino)-4-pyridyl]pyrazolo[1,5-a]pyridin-2-yl]cyclopropanecarboxamide], on SIK2 [1], the IC50 worked out at 0.0143 µM.

For the molecule `Cn1cc(Nc2cnc(C#N)cc2-c2ccn3nc(NC(=O)C4CC4)cc3c2)cn1` [Example 79, N-[5-[2-cyano-5-[(1-methylpyrazol-4-yl)amino]-4-pyridyl]pyrazolo[1,5-a]pyridin-2-yl]cyclopropanecarboxamide], the half-inhibitory concentration (IC50) at SIK2 [1] turned out to be 0.389 µM.

In the case of `N#Cc1cc(-c2ccn3nc(NC(=O)C4CC4)cc3c2)c(NC2CC2)cn1` [Example 80, N-[5-[2-cyano-5-(cyclopropylamino)-4-pyridyl]pyrazolo[1,5-a]pyridin-2-yl]cyclopropanecarboxamide], the IC50 on SIK2 [1] was found to be 0.0703 µM.

With `N#Cc1cc(-c2ccn3nc(NC(=O)C4CC4)cc3c2)c(O[C@H]2CNCCOC2)cn1` [Example 84, N-[5-[2-cyano-5-[[(6S)-1,4-oxazepan-6-yl]oxy]-4-pyridyl]pyrazolo[1,5-a]pyridin-2-yl]cyclopropanecarboxamide], the IC50 at SIK2 [1] worked out at 0.014 µM.

Take `CN1CC2CN(c3cnc(C#N)cc3-c3ccn4nc(NC(=O)C5CC5)cc4c3)CC2C1` (stereo not shown) [Example 90, N-[5-[2-cyano-5-(2-methyl-1,3,3a,4,6,6a-hexahydropyrrolo[3,4-c]pyrrol-5-yl)-4-pyridyl]pyrazolo[1,5-a]pyridin-2-yl]cyclopropanecarboxamide]: the IC50 at SIK2 [1] was 0.0134 µM.

Regarding `CN1CC2(C1)CN(c1cnc(C#N)cc1-c1ccn3nc(NC(=O)C4CC4)cc3c1)C2` [Example 91, N-[5-[2-cyano-5-(2-methyl-2,6-diazaspiro[3.3]heptan-6-yl)-4-pyridyl]pyrazolo[1,5-a]pyridin-2-yl]cyclopropanecarboxamide], the IC50 at SIK2 [1] amounted to 0.0688 µM.

Regarding `Cc1cc(-c2ccn3nc(NC(=O)C4CC4)cc3c2)c(O[C@@H]2C[C@H]3CC[C@@H](C2)N3C)cn1` [Example 140, N-(5-(2-methyl-5-(((1R,3r,5S)-8-methyl-8-azabicyclo[3.2.1]octan-3-yl)oxy)pyridin-4-yl)pyrazolo[1,5-a]pyridin-2-yl)cyclopropanecarboxamide], the half-inhibitory concentration (IC50) at SIK2 [1] was found to be 0.0195 µM.

Turning to `CCN1CC(Oc2cnc(C)cc2-c2ccn3nc(NC(=O)C4CC4)cc3c2)C1` [Example 141, N-[5-[5-(1-ethylazetidin-3-yl)oxy-2-methyl-4-pyridyl]pyrazolo[1,5-a]pyridin-2-yl]cyclopropanecarboxamide], the IC50 at SIK2 [1] came out at 0.0138 µM.

For the molecule `Cc1cc(-c2ccn3nc(NC(=O)C4CC4)cc3c2)c(OC2CN(C(C)C)C2)cn1` [Example 142, N-[5-[5-(1-isopropylazetidin-3-yl)oxy-2-methyl-4-pyridyl]pyrazolo[1,5-a]pyridin-2-yl]cyclopropanecarboxamide], at SIK2 [1], the IC50 was 0.0448 µM.

`CO[C@H]1C[C@H](Oc2cnc(C)cc2-c2ccn3nc(NC(=O)C4CC4)cc3c2)C1` [Example 146, trans-N-[5-[5-(3-methoxycyclobutoxy)-2-methyl-4-pyridyl]pyrazolo[1,5-a]pyridin-2-yl]cyclopropanecarboxamide]: the 50% inhibitory concentration (IC50) on SIK2 [1] is 0.0352 µM.

`CO[C@H]1C[C@@H](Oc2cnc(C)cc2-c2ccn3nc(NC(=O)C4CC4)cc3c2)C1` [Example 147, cis-N-[5-[5-(3-methoxycyclobutoxy)-2-methyl-4-pyridyl]pyrazolo[1,5-a]pyridin-2-yl]cyclopropanecarboxamide]: the concentration for half-maximal inhibition (IC50) on SIK2 [1] is 0.0124 µM.

As to `Cc1cc(-c2ccn3nc(NC(=O)C4CC4)cc3c2)c(OC[C@@H](N)C(C)(C)C)cn1` [Example 149, N-[5-[5-[(2S)-2-amino-3,3-dimethyl-butoxy]-2-methyl-4-pyridyl]pyrazolo[1,5-a]pyridin-2-yl]cyclopropanecarboxamide], the IC50 on SIK2 [1] came out at 0.0122 µM.

`Cc1cc(-c2ccn3nc(Nc4ccc(C(=O)NC5CC5)c(F)c4)cc3c2)c(OCC(C)(C)O)cn1` [Example 615, N-cyclopropyl-2-fluoro-4-[[5-[5-(2-hydroxy-2-methyl-propoxy)-2-methyl-4-pyridyl]pyrazolo[1,5-a]pyridin-2-yl]amino]benzamide]: on SIK2 [1], the IC50 amounted to 0.0117 µM.

With `COc1ccccc1-c1ccn2nc(NC(=O)C3CC3)cc2c1` [Example 742, N-[5-(2-methoxyphenyl)pyrazolo[1,5-a]pyridin-2-yl]cyclopropanecarboxamide], the concentration for half-maximal inhibition (IC50) on SIK2 [1] was found to be 0.417 µM.

In the case of `CCOc1ccccc1-c1ccn2nc(NC(=O)C3CC3)cc2c1` [Example 743, N-[5-(2-ethoxyphenyl)pyrazolo[1,5-a]pyridin-2-yl]cyclopropanecarboxamide], the IC50 at SIK2 [1] came to 0.0217 µM.

On to `COc1ccc(C)cc1-c1ccn2nc(NC(=O)C3CC3)cc2c1` [Example 744, N-[5-(2-methoxy-5-methyl-phenyl)pyrazolo[1,5-a]pyridin-2-yl]cyclopropanecarboxamide], for which the IC50 on SIK2 [1] amounted to 0.289 µM.

Regarding `COc1cc(C)ccc1-c1ccn2nc(NC(=O)C3CC3)cc2c1` [Example 745, N-[5-(2-methoxy-4-methyl-phenyl)pyrazolo[1,5-a]pyridin-2-yl]cyclopropanecarboxamide], the 50% inhibitory concentration (IC50) on SIK2 [1] amounted to 3.52 µM.

For the molecule `COc1cccc(C)c1-c1ccn2nc(NC(=O)C3CC3)cc2c1` [Example 746, N-[5-(2-methoxy-6-methyl-phenyl)pyrazolo[1,5-a]pyridin-2-yl]cyclopropanecarboxamide], the concentration for half-maximal inhibition (IC50) at SIK2 [1] amounted to 0.271 µM.

As to `COc1c(C)cccc1-c1ccn2nc(NC(=O)C3CC3)cc2c1` [Example 747, N-[5-(2-methoxy-3-methyl-phenyl)pyrazolo[1,5-a]pyridin-2-yl]cyclopropanecarboxamide], on SIK2 [1], the half-inhibitory concentration (IC50) came to 0.0312 µM.

As to `COc1ncccc1-c1ccn2nc(NC(=O)C3CC3)cc2c1` [Example 748, N-[5-(2-methoxy-3-pyridyl)pyrazolo[1,5-a]pyridin-2-yl]cyclopropanecarboxamide], at SIK2 [1], the IC50 was 0.0965 µM.

For `COc1cccnc1-c1ccn2nc(NC(=O)C3CC3)cc2c1` [Example 750, N-[5-(3-methoxy-2-pyridyl)pyrazolo[1,5-a]pyridin-2-yl]cyclopropanecarboxamide], the IC50 on SIK2 [1] came to 0.45 µM.

Regarding `COc1ccncc1-c1ccn2nc(NC(=O)C3CC3)cc2c1` [Example 751, N-[5-(4-methoxy-3-pyridyl)pyrazolo[1,5-a]pyridin-2-yl]cyclopropanecarboxamide], the concentration for half-maximal inhibition (IC50) on SIK2 [1] amounted to 0.198 µM.
